Assay results: patent publication US20230110998A1, “Compositions and Methods for Treatment of Cytokine Storm and Cytokine Release Syndrome” (Yinuoke Medicine Science Technology Company Ltd., priority 2020, published 2023)

Tests used:
[1] = tested on: LPS-induced CRS; assay: Acute diarrhea caused by high-dose LPS-induced CRS; type: in vivo, BALB/c mice; conditions: LPS 15 mg/kg i.p.
Experimental: 8-10-week-old female BALB/c mice were used for these studies. The mice were challenged with LPS at 15 mg per kg body weight, a dosage which had been empirically determined to induce diarrhea in 100% of tested subjects, via intraperitoneal injection. The mice were monitored for diarrhea symptoms, with diarrhea defined by the presence of watery stools 6 hours after treatment. Within 2 minutes of the LPS injection, test compound ketorolac (racemic mixture, suspended in PBS) or control vehicle (PBS) was administered at 0.1 mg (corresponding to 5 mg/kg) by single intraperitoneal injection.

[2] = tested on: IL-6; assay: Serum IL-6 levels in LPS-induced CRS; type: in vivo, BALB/c mice; conditions: 50 µg LPS i.p.; 10 mg/kg single i.p. injection; serum 2 hours after challenge; versus PBS, p=0.0023
Experimental: 8-week-old male BALB/c mice were used for these studies. The mice were challenged with 50 µg LPS (Sigma Cat. No. L2630) dissolved in 0.1 mL PBS, a dosage designed to ensure all animals survived the challenge, via intraperitoneal injection. Mouse serum was collected 2 hours after the challenge, and IL-6 was measured with the Mouse Il-6 Flex Set (BD Biosciences Cat. No. 558301).
Within 2 minutes of the LPS injection, test compound ketorolac (racemic mixture) or control vehicle (PBS) was administered at 10 mg per kg body weight by single intraperitoneal injection. 5 mice were included per experimental group.

[3] = tested on: LPS-induced CRS; assay: Survival of mice with LPS-induced CRS; type: in vivo, BALB/c mice; conditions: 0.2 mg LPS i.p.
Experimental: 8-week-old female BALB/c mice were used for these studies. […] The mice were challenged with 0.2 mg LPS (Sigma Cat. No. L2630) dissolved in 0.1 mL PBS via intraperitoneal injection. The mice were monitored for health condition and survival for a minimum of seven days. […]

[4] = biological target: T1, COX2 (Homo sapiens, UniProt P35354); conditions: no test described; cited from earlier work
T1 sequence (P35354 18-604): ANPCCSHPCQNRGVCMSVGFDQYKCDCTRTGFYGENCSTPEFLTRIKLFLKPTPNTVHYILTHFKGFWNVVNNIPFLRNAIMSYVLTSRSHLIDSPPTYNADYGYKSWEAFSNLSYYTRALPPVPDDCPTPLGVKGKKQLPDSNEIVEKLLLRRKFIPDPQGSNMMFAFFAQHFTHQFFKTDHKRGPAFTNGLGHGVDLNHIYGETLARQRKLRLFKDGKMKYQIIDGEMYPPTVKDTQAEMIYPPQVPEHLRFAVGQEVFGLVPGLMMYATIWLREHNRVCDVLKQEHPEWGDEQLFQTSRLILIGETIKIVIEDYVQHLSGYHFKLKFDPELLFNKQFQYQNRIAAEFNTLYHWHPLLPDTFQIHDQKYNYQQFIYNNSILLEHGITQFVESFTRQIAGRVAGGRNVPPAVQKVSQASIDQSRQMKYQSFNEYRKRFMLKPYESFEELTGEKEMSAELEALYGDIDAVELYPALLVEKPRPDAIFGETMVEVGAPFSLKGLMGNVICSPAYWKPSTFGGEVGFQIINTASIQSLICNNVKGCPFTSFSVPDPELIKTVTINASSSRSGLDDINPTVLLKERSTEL

[5] = biological target: COX1 (Homo sapiens, UniProt P23219); conditions: no test described; cited from earlier work
[6] = tested on: LPS-induced CRS; assay: Body weight loss caused by low-dose LPS-induced CRS; type: in vivo, BALB/c mice; conditions: 0.05 mg LPS i.p.; 0.3 mg (15 mg/kg) oral; next day; compared with aspirin, p=0.0267
Experimental: 8-week-old female BALB/c mice were used for these studies. The mice were challenged with 0.05 mg LPS (Sigma Cat. No. L2630) via intraperitoneal injection. Body weight was measured before LPS challenge and the next day after the challenge.
Within 2 minutes of LPS injection, test compound (R)-ketorolac (0.3 mg, corresponding to 15 mg/kg), aspirin (0.3 mg, corresponding to 15 mg/kg), or control vehicle (PBS) was orally administered.

[7] = tested on: C26 tumor cell-induced cytokine storm; assay: Tumor-induced cytokine storm model, serum cytokines (Mouse-Cytokine-32-Plex assay); conditions: gavage 0.2 mg daily for six days, serum on day 7, compared to PBS controls
Experimental: Cytokine storm inducing C26 tumor cells were cultured in Advanced RPMI 1640 medium supplied with 5% fetal bovine serum and 1% penicillin/streptomycin and maintained in a 5% CO2, 37° C. humidified incubator. Tumor cells with viability of >90% were chosen for the study. Viable tumor cells (1 × 10^6 cells) were re-suspended in 100 µL of PBS and subcutaneously injected into the left flank of mice. All procedures were performed in laminar flow hood following sterile techniques.
6-8 week BALB/c male and female mice were used for these studies. Following tumor inoculation, the animals were returned to the cage. The mice were monitored for the appearance of palpable tumor and cytokine storm development by observing health condition change and testing serum cytokines with Mouse-Cytokine-32-Plex assay.
2-4 mice were included in each experimental group. On day 7, mouse blood samples were collected and allowed to clot for one hour at room temperature. The samples were then centrifuged for 15 min at 3,000 rpm (1500 × g) at 4° C. Thirty microliters of serum per treatment animal were assessed for cytokine profiles using a Mouse-Cytokine-32-Plex assay (Eve Technologies Corporation, Calgary, AB, Canada).

Sequence of COX1 (P23219 24-599): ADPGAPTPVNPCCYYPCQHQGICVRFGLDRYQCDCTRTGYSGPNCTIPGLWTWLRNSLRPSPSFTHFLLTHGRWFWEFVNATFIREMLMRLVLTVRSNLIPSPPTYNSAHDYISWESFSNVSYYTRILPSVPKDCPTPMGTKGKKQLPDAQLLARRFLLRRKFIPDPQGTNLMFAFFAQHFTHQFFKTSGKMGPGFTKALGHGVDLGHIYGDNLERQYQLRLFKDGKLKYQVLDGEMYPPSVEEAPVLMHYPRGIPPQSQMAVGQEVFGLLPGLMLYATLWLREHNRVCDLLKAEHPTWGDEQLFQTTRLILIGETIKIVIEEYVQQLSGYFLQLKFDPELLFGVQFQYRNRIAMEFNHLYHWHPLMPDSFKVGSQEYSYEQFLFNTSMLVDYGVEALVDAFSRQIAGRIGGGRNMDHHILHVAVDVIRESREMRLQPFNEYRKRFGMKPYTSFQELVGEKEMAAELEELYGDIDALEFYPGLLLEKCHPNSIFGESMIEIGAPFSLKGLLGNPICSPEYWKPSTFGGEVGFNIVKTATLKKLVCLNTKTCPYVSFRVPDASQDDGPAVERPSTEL

SMILES | decrease of acute diarrhea occurrence ([1]; 0.1 mg (5 mg/kg) i.p., versus control) [%] | diarrhea present, % of mice ([1]; 0.1 mg (5 mg/kg) single i.p. injection, watery stools 6 hours after treatment, n=8, control 87.5%) [%] | serum IL-6 levels [2] | survival rate ([3]; 10 mg/kg single dose, surviving mice / n=6) | survival rate ([3]; 10 mg/kg, control 33.3%) [%] | increase in survival rate ([3]; 10 mg/kg, versus PBS control) [%] | activity against COX2 [4] | activity against COX1 [5] | body weight loss [6] | serum concentration of G-CSF [7] | serum concentration of GM-CSF [7] | serum concentration of IL-1β [7] | serum concentration of IL-6 [7] | serum concentration of IL-7 [7] | serum concentration of IL-10 [7] | serum concentration of LIF [7] | serum concentration of MCP-1 [7] | serum concentration of MIP-1A [7] | serum concentration of TNF-α [7]
O=C(c1ccccc1)c1ccc2n1CCC2C(=O)O (racemic) [ketorolac] | 65 | 12.5 | decreased serum IL-6 levels | – | – | – | – | – | – | – | – | – | – | – | – | – | – | – | –
O=C(c1ccccc1)c1ccc2n1CC[C@H]2C(=O)O [(R)-ketorolac] | – | – | – | ⅚ | 83.3 | 50 | not active | not active | significantly reduced body weight loss | effective in reducing | effective in reducing | effective in reducing | effective in reducing | effective in reducing | effective in reducing | effective in reducing | effective in reducing | effective in reducing | effective in reducing
